Assay results reported in publication PMC12030497, “Plasma Protein Binding, Biostability, Metabolite Profiling, and CYP450 Phenotype of TPB15 Across Different Species: A Novel Smoothened Inhibitor for TNBC Therapy” (Pharmaceutics, 2025).

Tests used:
[1] = Plasma protein binding by ultrafiltration, dog plasma; format: in vitro ADME; conditions: beagle
Method: (§1) To prepare plasma samples of TPB15 at final concentrations of 4, 8, and 16 μg/mL, 1 μL of TPB15 dissolved in dimethyl sulfoxide (DMSO) at low (400 μg/mL), medium (800 μg/mL), and high (1600 μg/mL) concentrations was added to 99 μL of blank plasma obtained from humans, rats, mice, monkeys, and dogs. Each concentration was prepared in six replicates. The samples were then divided into two groups: one for determining the pre-ultrafiltration concentration (Cpre) and the other for measuring the post-ultrafiltration concentration (Ct), following the evaluation of the non-specific binding coefficient (NSB) of TPB15 to the ultrafiltration tubes. For Cpre determination, 10 μL of the sample was mixed with 990 μL of plasma, vortexed thoroughly, and analyzed for drug concentration using the previously reported liquid chromatography–tandem mass spectrometry (LC-MS/MS) method. For Ct determination, the samples were first incubated in a water bath at 37 °C for 3 h. After incubation, they were transferred to ultrafiltration tubes and centrifuged at 14,000 rpm for 20 min at 4 °C using a centrifuge (Sigma 3K-15) from Sigma Laborzentrifugen GmbH (Osterode am Harz, Germany). After centrifugation, 10 μL of the ultrafiltrate was mixed with 990 μL of plasma, vortexed, and analyzed for concentration using the same LC-MS/MS method. The formula for calculating the plasma protein binding rate (PPB) is as follows: PPB (%) = [1 − Ct/(1 − NSB)/Cpre] × 100%. (NSB: non-specific binding coefficient. […]).

[2] = Metabolic stability in mouse liver microsomes (MouLM); format: in vitro ADME, KM mice
Method: (§2) A total of 450 μL liver microsomes from mice, rat, dog, monkey, and human were spiked with 0.5 μL of TPB15 solution and pre-incubated in a water bath at 37 °C for 10 min. Following this, 50 μL of NADPH were added to initiate the reaction. The concentrations of each substance in the incubation system are detailed in Table 1. After initiating the metabolic reaction, 50 μL aliquots were removed at incubation times of 0, 5, 15, 30, 45, 60, and 90 min and transferred to 150 μL of icy methanol solution containing the internal standard to terminate the reaction. The mixtures were swirled for 2 min and then centrifuged at 14,800 rpm at 4 °C for 10 min. […] Three samples were prepared in parallel at each time point. Additionally, both a positive control group and a blank control group were established. In the positive control group, substrate testosterone was incubated with liver microsomes from mice, rat, dog, monkey, and human. The concentrations of substrate testosterone were measured at 0 and 90 min, and the changes in concentration before and after incubation were compared to confirm the activity of the liver microsomes. The blank control group included one drug-containing inactivated liver microsome sample for each species. The metabolic stability parameters, including in vitro elimination half-life (T1/2) and in vitro intrinsic clearance rate (CLint), were calculated based on this graph using the following formulas: in vitro elimination half-life (T1/2) = −0.693/k and in vitro intrinsic clearance rate (CLint) = (0.693 × incubation medium (mL))/(liver microsomes (mg) × T1/2).

[3] = system: Smo; design: method as in PMID 32690258; conditions: preliminary studies; cited from earlier work
[4] = Metabolic stability in dog liver microsomes (DLM); format: in vitro ADME, beagle dog
Method: as §2

[5] = Metabolic stability in human liver microsomes (HLM); format: in vitro ADME
Method: as §2

[6] = Metabolic stability in rat liver microsomes (RLM); format: in vitro ADME, Sprague-Dawley rat
Method: as §2

[7] = Plasma protein binding by ultrafiltration, human plasma; format: in vitro ADME
Method: as §1

In the case of `O=C(Nc1ccc(Cl)c(-c2nnc3c(Cl)cccn23)c1)c1ccc(Cl)nc1Cl` [TPB15], the fraction unbound at 3 h, 4 μg/mL ([1]; dog, plasma, 4 μg/mL TPB15, ultrafiltration, 37 °C 3 h) is reported as 0.185, the fraction unbound at 3 h, 8 μg/mL ([1]; dog, plasma, 8 μg/mL TPB15, ultrafiltration, 37 °C 3 h) is reported as 0.19 and the fraction unbound at 3 h, 16 μg/mL ([1]; dog, plasma, 16 μg/mL TPB15, ultrafiltration, 37 °C 3 h) is reported as 0.177. The fraction unbound at 3 h ([1]; dog plasma, 4 to 16 μg/mL, read-out: average plasma protein binding rates, range over concentrations) was 0.177 to 0.19, the “remaining proportion of TPB15 in liver microsomes” value (“remaining proportion of TPB15” for short) ([2]; KM mice microsomes, 90 min, 5 μM TPB15, 0.5 mg/mL, NADPH 1 mM) was 80.0 ± 5.93% and the microsomal CLint at 5 μM ([2]; KM, mouse, liver microsomes, MouLM, 5 μM TPB15, 0.5 mg/mL microsomes, read-out: CLint (mL/min/mg), in vitro intrinsic clearance rate) was 0.0273 mL/min/mg. For the same molecule, the “binding to the Smo target” value [3] was “effectively binds to the Smo target”, the “remaining proportion of TPB15” value ([4]; beagle dog microsomes, 90 min, 5 μM TPB15, 0.5 mg/mL, NADPH 1 mM) was 90.3 ± 3.54% and the microsomal CLint at 5 μM ([4]; beagle, dog, liver microsomes, DLM, 5 μM TPB15, 0.5 mg/mL microsomes, read-out: CLint (mL/min/mg), in vitro intrinsic clearance rate) was 0.0132 mL/min/mg. For the same molecule, the half-life at 5 μM ([4]; beagle, dog, liver microsomes, DLM, 5 μM TPB15, 0.5 mg/mL microsomes, read-out: T1/2 (min), in vitro elimination half-life) was 630 min, the “remaining proportion of TPB15” value ([5]; human microsomes, 90 min, 5 μM TPB15, 0.5 mg/mL, NADPH 1 mM) was 55.0 ± 2.81% and the microsomal CLint at 5 μM ([5]; human, liver microsomes, HLM, 5 μM TPB15, 0.5 mg/mL microsomes, read-out: CLint (mL/min/mg), in vitro intrinsic clearance rate) was 0.0805 mL/min/mg. For the same molecule, the half-life at 5 μM ([5]; human, liver microsomes, HLM, 5 μM TPB15, 0.5 mg/mL microsomes, read-out: T1/2 (min), in vitro elimination half-life) was 103 min, the “remaining proportion of TPB15” value ([6]; Sprague-Dawley rat microsomes, 90 min, 5 μM TPB15, 0.5 mg/mL, NADPH 1 mM) was 76.0 ± 0.89% and the microsomal CLint at 5 μM ([6]; Sprague-Dawley, rat, liver microsomes, RLM, 5 μM TPB15, 0.5 mg/mL microsomes, read-out: CLint (mL/min/mg), in vitro intrinsic clearance rate) was 0.0344 mL/min/mg. For the same molecule, the fraction unbound at 3 h ([7]; human plasma, 4 to 16 μg/mL, read-out: average plasma protein binding rates, range over concentrations) was 0.179 to 0.185, the fraction unbound at 3 h, 4 μg/mL ([7]; human, plasma, 4 μg/mL TPB15, ultrafiltration, 37 °C 3 h) was 0.185 and the fraction unbound at 3 h, 8 μg/mL ([7]; human, plasma, 8 μg/mL TPB15, ultrafiltration, 37 °C 3 h) was 0.183. The fraction unbound at 3 h, 16 μg/mL ([7]; human, plasma, 16 μg/mL TPB15, ultrafiltration, 37 °C 3 h) was 0.179.
